In patent US20220031845A1, “DILUENTS FOR COMPOSITIONS OF CANNABINOIDS AND USES THEREOF” (KANABO RESEARCH LTD., priority 2019, published 2022):

Assays:
[1] = Stability of oversaturated CBD blend to crystallization; type: physicochemical; parameters: key: +: crystallization; −: no crystallization; conditions: one week at 10 or 22° C.
Experimental: Vials were prepared with 5 ml of oversaturated blend of CBD with different diluent. The blend was composed of CBD distilled oil (containing 90% CBD and less than 1% bisabolol) or CBD isolate (more than 99% CBD), and natural bisabolol and phytol. The stability of the solution to crystallization in the vial after a week of storage at either 10 or 22° C. is presented in Table 7.

[2] = Crystallization of CBD blends with different diluents after addition of crystal seed; type: physicochemical; parameters: key to crystallization of CBD: +: crystallization; −: no crystallization; conditions: for crystallization of CBD: 1% flavor, crystal seed, 22° C., one week; for concentration of CBD stabilized in the composition: at the diluent concentration that prevents crystallization
Experimental: 5 g of the following different blends were prepared. The blends contained a CBD distillate containing 92% of CBD, a diluent at different concentrations and 1% natural flavor (Girl School cookies from Floraplex—USA). The diluent was phytol, natural bisabolol or a combination of phytol and natural bisabolol. 2 mg of crystal seed were added to the vial to initiate crystallization. The vials were stored at 22° C. The vials were checked after a week to see if there is crystallization.

[3] = 28% diluent in blend, CBD distillate 92% CBD
[4] = 32% diluent in blend, CBD distillate 92% CBD
[5] = 36% diluent in blend, CBD distillate 92% CBD

| SMILES | Crystallization ([1]; CBD 90% distilled oil, 15% diluent in blend) | crystallization of CBD [2, 3] | crystallization of CBD [2, 4] | crystallization of CBD [2, 5] | crystallization of CBD ([2]; 40% diluent in blend, CBD distillate 92% CBD) | crystallization of CBD ([2]; 44% diluent in blend, CBD distillate 92% CBD) | concentration of CBD stabilized in the composition [2] | concentration of diluent required to prevent crystallization ([2]; upon addition of crystallization seeds, CBD distillate 92% CBD) | Crystallization ([1]; CBD 90% distilled oil, 5% diluent in blend) | Crystallization ([1]; CBD 90% distilled oil, 10% diluent in blend) | Crystallization ([1]; CBD 90% distilled oil, 20% diluent in blend) | Crystallization ([1]; CBD isolate, 10% diluent in blend) | Crystallization ([1]; CBD isolate, 20% diluent in blend) |
| --- | --- | --- | --- | --- | --- | --- | --- | --- | --- | --- | --- | --- | --- |
| C/C(=C\CO)CCC[C@H](C)CCC[C@H](C)CCCC(C)C [Phytol, phytol] | + | + | + | + | + | − | about 50% | about 44% |  |  |  |  |  |
| CC(C)=CCC[C@](C)(O)C1CC=C(C)CC1 (stereo partly drawn) [Bisabolol, α-(−)-bisabolol] |  | + | − | − |  |  | up to 65% |  | − | − | − | + | − |
